Assays:
K1T = K1T (Homo sapiens, UniProt P10721); experiment: Kinase inhibition assay: KIT; format: biochemical
SNARK = molecular target: T1, SNARK (Homo sapiens, UniProt Q9H093); experiment: In vitro kinase inhibition profile (Ambit Biosciences); format: binding; details: reported as percent control, lower numbers indicate stronger activities
T1 construct: purchased Ambit Biosciences
Protocol: (§1) Up to 518 different kinases have been identified in humans. To determine the scope of inhibitory effects of a representative compound of Formula (I) on known kinases, Compound 82 was tested against 104 commercially available kinases (Ambit Biosciences™). 104 kinases included ABL1(E255K)-phosphorylated, ABL1(T315I)-phosphorylated, ABL1-phosphorylated, ACVR1B, ADCK3, AKT1, AKT2, ALK, AURKA, AURKB, AXL, BMPR2, BRAF, BRAF(V600E), BTK, CDK11, CDK2, CDK3, CDK7, CDK9, CHEK1, CSF1R, CSNK1D, CSNK1G2, DCAMKL1, DYRK1B, EGFR, EGFR(L858R), EPHA2, ERBB2, ERBB4, ERK1, FAK, FGFR2, FGFR3, FLT1, FLT3, FLT4, GSK3B, IGF1R, IKK-α, IKK-β, INSR, JAK2(JH1domain-catalytic), JAK3 (JH1 domain-catalytic), JNK 1, JNK2, JNK3, KIT, KIT(D816V), KIT(V559D,T6701), LKB1, LRRK2, LRRK2(G2019S), MAP3K4, MAPKAPK2, MARKS, MEK1, MEK2, MET, MKNK1, MKNK2, MLK1, MTOR, p38-alpha, p38-beta, PAK1, PAK2, PAK-4, PCTK1, PDGFRA, PDGFRB, PDPK1, PIK3C2B, PIK3CA, PIK3CG, PIM1, PIM2, PIM3, PKAC-alpha, PLK1, PLK3, PLK4, PRKCE, PYK2, RAF1, RET, R10K2, ROCK2, RSK2, SNARK, SRC, SRPK3, SYK, TAK1, TGFBR1, TIE2, TRKA, TSSK1B, TYK2(JH1domain-catalytic), ULK2, VEGFR2, YANK3 and ZAP70.
(§2) Inhibition activity of Compound 82 was reported as percent control where lower numbers indicate stronger activities.

SYK = molecular target: T2, SYK (Homo sapiens, UniProt P43405); experiment: as above; format: binding; details: reported as percent control, lower numbers indicate stronger activities
T2 construct: Purified full-length human SYK, ZAP70, PIM1, PYK2; purchased Carna Biosciences
Protocol: as §1, §2

KIT(V559D,T6701) = molecular target: T3, KIT(V559D,T6701) (Homo sapiens, UniProt P10721, T670I/V559D); experiment: as above; format: binding; details: reported as percent control, lower numbers indicate stronger activities
T3 construct: purchased Ambit Biosciences
T3 sequence (P10721 26-976 V559D/T670I): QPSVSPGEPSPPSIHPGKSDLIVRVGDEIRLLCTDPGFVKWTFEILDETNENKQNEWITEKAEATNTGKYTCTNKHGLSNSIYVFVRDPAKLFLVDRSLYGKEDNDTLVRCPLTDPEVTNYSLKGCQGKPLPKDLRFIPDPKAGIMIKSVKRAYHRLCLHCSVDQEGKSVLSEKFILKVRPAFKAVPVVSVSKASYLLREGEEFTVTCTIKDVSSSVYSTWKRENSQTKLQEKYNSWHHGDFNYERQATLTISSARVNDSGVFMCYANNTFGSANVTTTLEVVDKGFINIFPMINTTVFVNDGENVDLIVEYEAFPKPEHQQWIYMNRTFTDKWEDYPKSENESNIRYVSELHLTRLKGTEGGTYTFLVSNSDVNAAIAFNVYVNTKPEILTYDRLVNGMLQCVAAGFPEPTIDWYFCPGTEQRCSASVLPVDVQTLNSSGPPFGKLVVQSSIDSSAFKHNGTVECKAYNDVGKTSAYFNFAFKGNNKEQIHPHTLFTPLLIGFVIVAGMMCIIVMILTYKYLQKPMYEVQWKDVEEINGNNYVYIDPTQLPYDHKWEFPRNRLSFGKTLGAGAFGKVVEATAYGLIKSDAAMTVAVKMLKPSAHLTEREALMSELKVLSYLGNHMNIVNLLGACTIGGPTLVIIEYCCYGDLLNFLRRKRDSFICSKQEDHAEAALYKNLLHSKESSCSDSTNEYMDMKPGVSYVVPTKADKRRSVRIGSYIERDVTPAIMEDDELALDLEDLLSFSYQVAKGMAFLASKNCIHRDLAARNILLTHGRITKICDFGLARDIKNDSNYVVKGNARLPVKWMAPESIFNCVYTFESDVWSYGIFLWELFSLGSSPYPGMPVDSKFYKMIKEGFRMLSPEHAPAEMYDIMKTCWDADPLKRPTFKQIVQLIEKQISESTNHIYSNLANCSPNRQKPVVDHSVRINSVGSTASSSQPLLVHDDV
Protocol: as §1, §2

MKNK2 = molecular target: T4, MKNK2 (Homo sapiens, UniProt Q9HBH9); experiment: as above; format: binding; details: reported as percent control, lower numbers indicate stronger activities
T4 construct: purchased Ambit Biosciences
Protocol: as §1, §2

ZAP70 = molecular target: T5, ZAP70 (Homo sapiens, UniProt P43403); experiment: as above; format: binding; details: reported as percent control, lower numbers indicate stronger activities
T5 construct: Purified full-length human SYK, ZAP70, PIM1, PYK2; purchased Carna Biosciences
T5 sequence (P43403 1-619): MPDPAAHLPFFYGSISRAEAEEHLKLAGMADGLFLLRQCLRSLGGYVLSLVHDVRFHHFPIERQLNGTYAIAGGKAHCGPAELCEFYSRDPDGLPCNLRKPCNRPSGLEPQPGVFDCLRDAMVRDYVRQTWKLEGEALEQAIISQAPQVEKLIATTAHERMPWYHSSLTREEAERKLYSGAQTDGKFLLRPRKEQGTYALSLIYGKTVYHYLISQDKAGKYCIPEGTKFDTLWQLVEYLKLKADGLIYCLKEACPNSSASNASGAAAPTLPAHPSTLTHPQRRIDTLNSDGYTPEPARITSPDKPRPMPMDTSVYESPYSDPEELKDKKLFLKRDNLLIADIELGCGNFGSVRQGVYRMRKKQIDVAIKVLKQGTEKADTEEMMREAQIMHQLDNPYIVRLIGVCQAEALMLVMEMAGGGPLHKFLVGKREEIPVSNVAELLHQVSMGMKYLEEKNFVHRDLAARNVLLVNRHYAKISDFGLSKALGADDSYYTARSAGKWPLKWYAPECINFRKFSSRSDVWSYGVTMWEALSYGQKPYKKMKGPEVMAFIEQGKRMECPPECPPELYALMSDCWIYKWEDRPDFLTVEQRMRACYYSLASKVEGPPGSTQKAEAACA
Protocol: as §1, §2

MLK1 = molecular target: T6, MLK1 (Homo sapiens, UniProt P80192); experiment: as above; format: binding; details: reported as percent control, lower numbers indicate stronger activities
T6 construct: purchased Ambit Biosciences
Protocol: as §1, §2

RET = molecular target: T7, RET (Homo sapiens, UniProt P07949); experiment: as above; format: binding; details: reported as percent control, lower numbers indicate stronger activities
T7 construct: purchased Ambit Biosciences
Protocol: as §1, §2

PLK3 = molecular target: T8, PLK3 (Homo sapiens, UniProt Q9H4B4); experiment: as above; format: binding; details: reported as percent control, lower numbers indicate stronger activities
T8 construct: purchased Ambit Biosciences
T8 sequence (Q9H4B4 whole entry): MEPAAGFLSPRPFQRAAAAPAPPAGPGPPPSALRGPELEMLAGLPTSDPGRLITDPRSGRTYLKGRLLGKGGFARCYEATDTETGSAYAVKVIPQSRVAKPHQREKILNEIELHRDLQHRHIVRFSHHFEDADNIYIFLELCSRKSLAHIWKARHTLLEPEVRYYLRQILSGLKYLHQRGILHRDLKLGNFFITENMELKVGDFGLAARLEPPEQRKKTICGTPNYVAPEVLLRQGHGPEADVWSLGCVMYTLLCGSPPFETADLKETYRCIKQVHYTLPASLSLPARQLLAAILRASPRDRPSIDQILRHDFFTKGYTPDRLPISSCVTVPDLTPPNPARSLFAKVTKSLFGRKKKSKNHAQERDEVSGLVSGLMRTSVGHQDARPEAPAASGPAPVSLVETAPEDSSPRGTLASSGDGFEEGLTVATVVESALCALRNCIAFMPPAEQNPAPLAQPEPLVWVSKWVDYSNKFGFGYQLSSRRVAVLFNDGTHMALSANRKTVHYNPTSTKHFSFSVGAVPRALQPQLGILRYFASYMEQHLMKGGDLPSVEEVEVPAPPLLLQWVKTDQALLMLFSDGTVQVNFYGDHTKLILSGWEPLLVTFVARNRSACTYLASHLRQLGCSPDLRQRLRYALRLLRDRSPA
Protocol: as §1, §2

SRPK3 = molecular target: T9, SRPK3 (Homo sapiens, UniProt Q9UPE1); experiment: as above; format: binding; details: reported as percent control, lower numbers indicate stronger activities
T9 construct: purchased Ambit Biosciences
Protocol: as §1, §2

TAK1 = molecular target: T10, TAK1 (Homo sapiens, UniProt O43318); experiment: as above; format: binding; details: reported as percent control, lower numbers indicate stronger activities
T10 construct: purchased Ambit Biosciences
T10 sequence (O43318 whole entry): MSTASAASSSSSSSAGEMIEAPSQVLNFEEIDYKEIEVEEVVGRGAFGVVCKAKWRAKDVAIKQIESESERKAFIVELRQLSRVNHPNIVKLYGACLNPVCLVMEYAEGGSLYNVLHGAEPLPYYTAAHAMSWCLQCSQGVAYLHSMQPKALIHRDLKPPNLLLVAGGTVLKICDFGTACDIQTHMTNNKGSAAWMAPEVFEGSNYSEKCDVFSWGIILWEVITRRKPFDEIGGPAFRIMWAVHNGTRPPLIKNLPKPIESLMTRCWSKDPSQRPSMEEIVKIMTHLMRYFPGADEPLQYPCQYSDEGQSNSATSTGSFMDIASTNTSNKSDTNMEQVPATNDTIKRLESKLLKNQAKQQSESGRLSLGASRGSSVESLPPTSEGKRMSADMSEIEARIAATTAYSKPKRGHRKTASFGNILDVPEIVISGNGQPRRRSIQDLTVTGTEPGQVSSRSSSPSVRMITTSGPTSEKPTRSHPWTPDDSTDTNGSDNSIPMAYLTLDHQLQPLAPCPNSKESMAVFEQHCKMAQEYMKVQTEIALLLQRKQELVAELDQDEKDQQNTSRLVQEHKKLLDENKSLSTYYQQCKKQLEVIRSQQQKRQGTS
Protocol: as §1, §2

AURKB = molecular target: T11, AURKB (Homo sapiens, UniProt Q96GD4); experiment: as above; format: binding; details: reported as percent control, lower numbers indicate stronger activities
T11 construct: purchased Ambit Biosciences
T11 sequence (Q96GD4 whole entry): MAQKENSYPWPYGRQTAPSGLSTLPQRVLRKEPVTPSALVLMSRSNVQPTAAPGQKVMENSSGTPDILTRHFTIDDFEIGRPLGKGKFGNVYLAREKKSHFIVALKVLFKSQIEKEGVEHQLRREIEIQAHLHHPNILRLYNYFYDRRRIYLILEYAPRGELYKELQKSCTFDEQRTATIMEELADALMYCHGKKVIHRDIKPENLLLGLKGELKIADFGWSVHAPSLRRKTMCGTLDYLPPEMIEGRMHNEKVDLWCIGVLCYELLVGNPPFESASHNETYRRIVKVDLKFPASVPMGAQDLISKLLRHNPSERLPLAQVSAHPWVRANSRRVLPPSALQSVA
Protocol: as §1, §2

KIT = molecular target: T12, KIT (Homo sapiens, UniProt P10721); experiment: as above; format: binding; details: reported as percent control, lower numbers indicate stronger activities
T12 construct: purchased Ambit Biosciences
T12 sequence (P10721 26-976): as the sequence (P10721 26-976 V559D/T670I) above, with D534V, I645T counted along it
Protocol: as §1, §2

AXL = molecular target: T13, AXL (Homo sapiens, UniProt P30530); experiment: as above; format: binding; details: reported as percent control, lower numbers indicate stronger activities
T13 construct: purchased Ambit Biosciences
Protocol: as §1, §2

TYK2 = molecular target: T14, TYK2 (Homo sapiens, UniProt P29597); experiment: as above; format: binding; details: reported as percent control, lower numbers indicate stronger activities
T14 construct: TYK2(JH1domain-catalytic); purchased Ambit Biosciences
T14 sequence (P29597 897-1176 limits assumed): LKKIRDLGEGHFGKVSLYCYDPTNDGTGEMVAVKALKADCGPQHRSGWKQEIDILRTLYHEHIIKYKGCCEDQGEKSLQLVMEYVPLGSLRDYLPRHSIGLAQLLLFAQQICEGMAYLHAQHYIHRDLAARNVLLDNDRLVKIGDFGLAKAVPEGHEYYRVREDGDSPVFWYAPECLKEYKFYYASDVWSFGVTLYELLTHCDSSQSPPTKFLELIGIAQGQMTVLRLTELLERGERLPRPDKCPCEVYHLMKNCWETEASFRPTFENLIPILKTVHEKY
Protocol: as §1, §2

PDGFRB = molecular target: T15, PDGFRB (Homo sapiens, UniProt P09619); experiment: as above; format: binding; details: reported as percent control, lower numbers indicate stronger activities
T15 construct: purchased Ambit Biosciences
T15 sequence (P09619 33-1106): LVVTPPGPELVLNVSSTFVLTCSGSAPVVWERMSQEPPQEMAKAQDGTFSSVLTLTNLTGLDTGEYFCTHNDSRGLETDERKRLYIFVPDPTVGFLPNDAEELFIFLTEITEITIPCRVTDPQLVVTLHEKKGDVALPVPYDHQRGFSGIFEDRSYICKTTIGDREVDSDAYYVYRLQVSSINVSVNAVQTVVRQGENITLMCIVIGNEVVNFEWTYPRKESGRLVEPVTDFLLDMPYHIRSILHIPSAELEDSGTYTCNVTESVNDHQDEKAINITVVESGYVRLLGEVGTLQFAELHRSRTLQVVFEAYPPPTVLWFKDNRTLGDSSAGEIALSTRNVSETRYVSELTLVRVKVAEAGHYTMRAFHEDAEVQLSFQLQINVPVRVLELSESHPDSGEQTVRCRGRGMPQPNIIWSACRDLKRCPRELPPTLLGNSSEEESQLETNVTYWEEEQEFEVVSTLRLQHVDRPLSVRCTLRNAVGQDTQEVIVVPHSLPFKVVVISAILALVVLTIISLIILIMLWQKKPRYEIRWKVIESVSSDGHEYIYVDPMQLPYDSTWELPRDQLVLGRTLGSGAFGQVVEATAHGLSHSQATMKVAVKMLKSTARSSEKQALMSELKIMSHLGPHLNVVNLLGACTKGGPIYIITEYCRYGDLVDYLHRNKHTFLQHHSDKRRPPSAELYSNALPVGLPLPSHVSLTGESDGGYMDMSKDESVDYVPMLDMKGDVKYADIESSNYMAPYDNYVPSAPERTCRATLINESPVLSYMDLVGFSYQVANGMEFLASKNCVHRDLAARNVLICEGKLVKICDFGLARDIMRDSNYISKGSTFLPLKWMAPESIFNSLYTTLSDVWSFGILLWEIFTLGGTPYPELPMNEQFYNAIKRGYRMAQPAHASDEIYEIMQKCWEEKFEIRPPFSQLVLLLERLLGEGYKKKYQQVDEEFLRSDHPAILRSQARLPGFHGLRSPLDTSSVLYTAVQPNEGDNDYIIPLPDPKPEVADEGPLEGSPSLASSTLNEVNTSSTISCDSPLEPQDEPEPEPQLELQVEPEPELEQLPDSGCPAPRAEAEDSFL
Protocol: as §1, §2

T1 sequence (Q9H093 whole entry): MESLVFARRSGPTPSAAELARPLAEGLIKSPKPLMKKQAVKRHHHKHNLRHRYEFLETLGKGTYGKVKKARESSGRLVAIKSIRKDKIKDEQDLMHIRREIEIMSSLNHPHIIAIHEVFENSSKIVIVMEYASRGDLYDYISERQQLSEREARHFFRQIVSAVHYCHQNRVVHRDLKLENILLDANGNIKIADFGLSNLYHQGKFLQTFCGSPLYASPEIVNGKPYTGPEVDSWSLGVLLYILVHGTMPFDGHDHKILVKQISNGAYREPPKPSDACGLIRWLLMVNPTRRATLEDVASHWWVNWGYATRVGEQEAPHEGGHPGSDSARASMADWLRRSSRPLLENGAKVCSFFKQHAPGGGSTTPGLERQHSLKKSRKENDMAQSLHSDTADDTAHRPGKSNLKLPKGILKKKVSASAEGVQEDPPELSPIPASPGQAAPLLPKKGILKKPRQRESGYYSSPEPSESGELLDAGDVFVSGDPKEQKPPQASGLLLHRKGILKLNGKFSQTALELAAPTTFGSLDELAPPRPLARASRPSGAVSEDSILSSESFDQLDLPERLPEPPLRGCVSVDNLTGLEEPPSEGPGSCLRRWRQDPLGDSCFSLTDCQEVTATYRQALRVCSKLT
Chain of K1T (P10721 26-976): as the sequence (P10721 26-976 V559D/T670I) above, with D534V, I645T counted along it

| IC50 (K1T) [nM] | % of control SNARK (SNARK) [%] | % of control SYK (SYK) [%] | Percent of control (KIT(V559D,T6701)) [%] | % of control binding MKNK2 (MKNK2) [%] | % of control ZAP70 binding (lower = stronger) (ZAP70) [%] | % of control (MLK1) [%] | RET binding, % of control (RET) [%] | percent of control (lower = stronger binding) (PLK3) [%] | % of control SRPK3 binding (SRPK3) [%] | % of control remaining TAK1 binding (TAK1) [%] | % of control binding (AURKB) [%] | % of control (remaining binding) (KIT) [%] | % of control AXL (AXL) [%] | % of control (TYK2) [%] | % of control PDGFRB (PDGFRB) [%] | SMILES |
| --- | --- | --- | --- | --- | --- | --- | --- | --- | --- | --- | --- | --- | --- | --- | --- | --- |
| 137 | – | – | – | – | – | – | – | – | – | – | – | – | – | – | – | COc1cc(Nc2ncc(C)c(-n3cc(C)c(CO)c3)n2)cc(OC)c1OC [Compound 21, (4-methyl-1-(5-methyl-2-(3,4,5-trimethoxyphenylamino)pyrimidin-4-yl)-1H-pyrrol-3-yl)methanol] |
| – | 4.2 | 1 | 28 | 34 | 34 | 22 | 32 | 11 | 25 | 22 | 31 | 26 | 31 | 21 | 1.8 | Cc1cc(C)cc(Nc2ncc(F)c(-n3cc(C)c(CN4CC[C@@H](O)C4)c3)n2)c1 [Compound 82, (R)-1-((1-(2-(3,5-dimethylphenyl-amino)-5-fluoropyrimidin-4-yl)-4-methyl-1H-pyrrol-3-yl)methyl) pyrrolidin-3-ol] |
